Patent publication US20240366589A1, “NHE3-BINDING COMPOUNDS AND METHODS FOR INHIBITING PHOSPHATE TRANSPORT” (Ardelyx, Inc., priority 2013, published 2024)

How the values were obtained:
[1] = molecular target: T1, Human NHE3 (Homo sapiens, UniProt P48764); experiment: Cell-based NHE3 activity under prompt conditions (OK cells, BCECF pH recovery), human NHE3; details: prompt conditions
T1 construct: expressed in transfected cells; host or cells: Opossum kidney (OK) cells (ATCC), electroporation
T1 sequence (P48764 26-834): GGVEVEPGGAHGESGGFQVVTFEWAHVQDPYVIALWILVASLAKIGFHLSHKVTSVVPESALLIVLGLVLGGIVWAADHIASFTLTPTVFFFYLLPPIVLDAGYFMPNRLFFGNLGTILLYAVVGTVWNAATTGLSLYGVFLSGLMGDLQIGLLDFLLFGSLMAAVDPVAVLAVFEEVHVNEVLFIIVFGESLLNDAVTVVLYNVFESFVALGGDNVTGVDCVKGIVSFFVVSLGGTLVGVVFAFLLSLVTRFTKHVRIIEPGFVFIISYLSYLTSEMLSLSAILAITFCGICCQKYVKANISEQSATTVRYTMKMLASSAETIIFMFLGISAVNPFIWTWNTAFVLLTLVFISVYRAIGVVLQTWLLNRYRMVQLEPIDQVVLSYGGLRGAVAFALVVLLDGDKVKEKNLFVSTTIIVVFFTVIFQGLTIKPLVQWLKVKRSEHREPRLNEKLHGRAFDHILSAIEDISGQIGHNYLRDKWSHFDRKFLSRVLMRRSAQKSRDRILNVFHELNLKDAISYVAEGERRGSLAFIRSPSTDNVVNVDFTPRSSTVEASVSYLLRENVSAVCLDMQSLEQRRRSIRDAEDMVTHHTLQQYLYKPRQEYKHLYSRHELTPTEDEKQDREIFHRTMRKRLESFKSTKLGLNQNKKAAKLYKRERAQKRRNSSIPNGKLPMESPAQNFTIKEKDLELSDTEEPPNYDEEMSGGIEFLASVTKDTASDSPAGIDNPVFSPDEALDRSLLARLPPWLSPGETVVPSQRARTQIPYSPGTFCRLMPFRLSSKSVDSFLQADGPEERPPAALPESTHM
Procedure, shortened: (§1)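 Read-out: initial rate of BCECF-reported intracellular pH recovery via Na+/H+ antiport, fitted to pIC50. Opossum kidney cells transfected with rat or human NHE3; NH4Cl prepulse with 5 μM BCECF-AM, 30 min RT; Na+-free choline buffer 10 min.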

[2] = molecular target: T2, Rat NHE3 (Rattus norvegicus, UniProt P26433); experiment: Cell-based NHE3 activity under prompt conditions (OK cells, BCECF pH recovery), rat NHE3; details: prompt conditions
T2 construct: expressed in transfected cells; host or cells: Opossum kidney (OK) cells (ATCC), electroporation
Procedure, shortened: as §1

[3] = system: phosphorus and calcium levels in the urine of rats; experiment: Urinary excretion of phosphate and calcium in rats (16 h overnight urine); assay type: in vivo, rat; details: rats, oral gavage, 16 h post-dose
[4] = system: absorption of sodium from the intestinal lumen; experiment: Fecal form score (FFS) 16 h after oral dose in rats; assay type: in vivo, rat; details: oral gavage, 16 h post-dose, scale 1-5
Procedure, shortened: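 Fecal form was scored at 16 h post-dose on a 1–5 wetness scale (normal pellet to liquid stream), with two independent observations averaged across six rats per group. Animals were 8-week-old Sprague-Dawley rats given test compound or water orally in the late afternoon and kept in metabolic cages.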

[5] = system: absorption of sodium from the intestinal lumen; experiment: Inhibition of intestinal sodium absorption: urinary sodium (uNa) 16 h after single oral dose in rats; assay type: in vivo, rat; details: oral gavage, 16 h post-dose
Procedure, shortened: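 Urinary sodium mass over the 16 h after one oral gavage dose, measured by cation-exchange ion chromatography, reported as percent of water-vehicle group; ANOVA plus Dunnett's post hoc test. Groups of six 8-week-old Sprague-Dawley rats, housed individually in metabolic cages post-dose, fed and watered freely.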

T2 sequence (P26433 29-831): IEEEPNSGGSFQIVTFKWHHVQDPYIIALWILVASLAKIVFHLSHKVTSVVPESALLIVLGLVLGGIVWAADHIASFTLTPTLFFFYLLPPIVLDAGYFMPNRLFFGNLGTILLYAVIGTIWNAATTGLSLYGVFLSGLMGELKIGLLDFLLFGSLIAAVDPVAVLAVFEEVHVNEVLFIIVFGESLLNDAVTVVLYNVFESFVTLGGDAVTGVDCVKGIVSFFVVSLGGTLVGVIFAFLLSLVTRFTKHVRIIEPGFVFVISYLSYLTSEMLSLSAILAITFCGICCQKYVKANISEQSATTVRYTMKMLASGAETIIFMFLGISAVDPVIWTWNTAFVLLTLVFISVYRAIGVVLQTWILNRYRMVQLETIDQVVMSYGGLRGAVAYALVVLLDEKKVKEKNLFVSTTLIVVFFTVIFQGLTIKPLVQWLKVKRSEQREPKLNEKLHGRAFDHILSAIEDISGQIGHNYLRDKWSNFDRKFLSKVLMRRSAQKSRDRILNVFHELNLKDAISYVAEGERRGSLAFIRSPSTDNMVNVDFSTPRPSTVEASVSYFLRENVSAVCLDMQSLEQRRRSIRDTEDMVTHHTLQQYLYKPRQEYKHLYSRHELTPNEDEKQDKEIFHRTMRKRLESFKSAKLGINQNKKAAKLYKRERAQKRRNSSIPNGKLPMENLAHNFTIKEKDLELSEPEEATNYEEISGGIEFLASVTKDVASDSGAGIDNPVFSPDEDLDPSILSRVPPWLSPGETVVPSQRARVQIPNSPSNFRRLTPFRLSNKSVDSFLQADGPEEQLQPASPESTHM

SMILES | Prompt Human NHE3 pIC50 [1] | Prompt Rat NHE3 pIC50 [2] | Urine P % of control ([3]; dose 10 mg/kg) [%] | Fecal Form Score average ([4]; dose 10 mg/kg) | Urine Na % of control ([5]; dose 10 mg/kg) [%] | Urine P % of control ([3]; dose 3 mg/kg) [%] | Fecal Form Score average ([4]; dose 3 mg/kg) | Urine Na % of control ([5]; dose 3 mg/kg) [%] | IC50 ([2]; read-out: Prompt Rat NHE3 pIC50 (converted)) [nM]
CN1Cc2c(Cl)cc(Cl)cc2[C@H](c2cccc(S(=O)(=O)NCCOCCOCCOCCNC(=O)NCCN3CCN(c4nc(N5CCN(CCNC(=O)NCCOCCOCCOCCNS(=O)(=O)c6cccc([C@@H]7CN(C)Cc8c(Cl)cc(Cl)cc87)c6)CC5)nc(N5CCN(CCNC(=O)NCCOCCOCCOCCNS(=O)(=O)c6cccc([C@@H]7CN(C)Cc8c(Cl)cc(Cl)cc87)c6)CC5)n4)CC3)c2)C1 [compound 70] | 7.20 | 6.70 | 83 | 1 | 96 |  |  |  | 
N=C(N)Nc1nc(-c2cccc(N3CCN(CCOCCOCCOCCNC(=O)NCCOCCOCCNC(=O)CN(CCN(CC(=O)O)CC(=O)NCCOCCOCCNC(=O)NCCOCCOCCOCCN4CCN(c5cccc(-c6nc(NC(=N)N)nc7ccc(Cl)cc67)c5)CC4)CC(=O)O)CC3)c2)c2cc(Cl)ccc2n1 [compound 41] | 8.20 | 7.90 | 133 | 1 | 104 |  |  |  | 
CNC(=O)NC(CCC(=O)NCCOCCOCCNS(=O)(=O)c1cccc([C@@H]2CN(C)Cc3c(Cl)cc(Cl)cc32)c1)(CCC(=O)NCCOCCOCCNS(=O)(=O)c1cccc([C@@H]2CN(C)Cc3c(Cl)cc(Cl)cc32)c1)CCC(=O)NCCOCCOCCNS(=O)(=O)c1cccc([C@@H]2CN(C)Cc3c(Cl)cc(Cl)cc32)c1 [compound 130] | 7.20 | 6.10 |  |  |  | 70 | 2 | 18 | 
O=C(NCCOCCOCCOCCNS(=O)(=O)c1ccc(O[C@H]2c3ccccc3C[C@@H]2N2CCCCC2)cc1)c1ccc(C(=O)NCCOCCOCCOCCNS(=O)(=O)c2ccc(O[C@H]3c4ccccc4C[C@@H]3N3CCCCC3)cc2)cc1 [compound 117] | 8.20 | 7.50 | 98 | 1 | 77 |  |  |  | 
C/C(=C\c1cc(F)c(Oc2ccc(S(=O)(=O)NCCOCCOCCOCCNC(=O)NCCCCNC(=O)NCCOCCOCCOCCNS(=O)(=O)c3ccc(Oc4c(F)cc(/C=C(\C)C(=O)N=C(N)N)cc4F)cc3)cc2)c(F)c1)C(=O)N=C(N)N [compound 29] | 8.10 | 7.50 | 102 | 1 | 92 |  |  |  | 
CN(CC(=O)NCCOCCOCCNC(=O)NCCOCCOCCOCCN1CCN(c2ccc(-c3nc(N=C(N)N)nc4ccc(Cl)cc34)cc2)CC1)CC(=O)NCCOCCOCCNC(=O)NCCOCCOCCOCCN1CCN(c2ccc(-c3nc(N=C(N)N)nc4ccc(Cl)cc34)cc2)CC1 [compound 45] | 7.90 | 7.50 | 109 | 1 | 97 |  |  |  | 
CN1Cc2c(Cl)cc(Cl)cc2[C@H](c2cccc(S(=O)(=O)NCCOCCOCCNC(=O)NCCN(CCNC(=O)NCCOCCOCCNS(=O)(=O)c3cccc([C@@H]4CN(C)Cc5c(Cl)cc(Cl)cc54)c3)C(=O)NCCCCCCCCCCCCNC(=O)N(CCNC(=O)NCCOCCOCCNS(=O)(=O)c3cccc([C@@H]4CN(C)Cc5c(Cl)cc(Cl)cc54)c3)CCNC(=O)NCCOCCOCCNS(=O)(=O)c3cccc([C@@H]4CN(C)Cc5c(Cl)cc(Cl)cc54)c3)c2)C1 [compound 86] | 5.90 | 5.80 | 89 | 1 | 87 |  |  |  | 
CN1Cc2c(Cl)cc(Cl)cc2[C@H](c2cccc(S(=O)(=O)NCCOCCOCCNC(=O)COCC(=O)NCCOCCOCCNS(=O)(=O)c3ccc(O[C@H]4c5ccccc5C[C@@H]4N4CCCCC4)cc3)c2)C1 [compound 97] | 8.50 | 7.60 | 78 | 1 | 64 |  |  |  | 
NCCOCCOCCNS(=O)(=O)c1ccc(O[C@H]2c3ccccc3C[C@@H]2N2CCCCC2)cc1 [compound 60] | 7.10 | 6.35 | 92 | 1 | 67 |  |  |  | 
CN1Cc2c(Cl)cc(Cl)cc2[C@H](c2cccc(S(=O)(=O)NCCOCCOCCN(C)C(=O)NCCCN(CCCNC(=O)N(C)CCOCCOCCNS(=O)(=O)c3cccc([C@@H]4CN(C)Cc5c(Cl)cc(Cl)cc54)c3)CCCNC(=O)N(C)CCOCCOCCNS(=O)(=O)c3cccc([C@@H]4CN(C)Cc5cc(Cl)cc(Cl)c54)c3)c2)C1 [compound 131] | 7.20 |  |  |  |  | 68 | 2 | 38 | 794
NC(N)=Nc1nc(-c2cccc(N3CCN(CCOCCOCCNC(=O)NCCOCCOCCNC(=O)NCCCCNC(=O)NCCOCCOCCNC(=O)NCCOCCOCCN4CCN(c5cccc(-c6nc(N=C(N)N)nc7ccc(Cl)cc67)c5)CC4)CC3)c2)c2cc(Cl)ccc2n1 [compound 28] | 8.10 | 7.60 | 129 | 1 | 83 |  |  |  | 
O=C(NCCCCNC(=O)NCCOCCOCCNS(=O)(=O)c1ccc(O[C@H]2c3cc(F)ccc3C[C@@H]2N2CCCCC2)cc1)NCCOCCOCCNS(=O)(=O)c1ccc(O[C@H]2c3cc(F)ccc3C[C@@H]2N2CCCCC2)cc1 [compound 140] | 7.70 | 8.90 | 121 | 1 | 110 |  |  |  | 
CN1Cc2c(Cl)cc(Cl)cc2[C@H](c2cccc(S(=O)(=O)NCCOCCOCCNC(=O)CN(CCN(CC(=O)O)CC(=O)NCCOCCOCCNS(=O)(=O)c3cccc([C@@H]4CN(C)Cc5c(Cl)cc(Cl)cc54)c3)CC(=O)O)c2)C1 [compound 81] | 7.90 | 7.90 | 42 | 2 | 11 |  |  |  | 
CN1Cc2c(Cl)cc(Cl)cc2[C@H](c2cccc(S(=O)(=O)NCCOCCOCCNC(=O)NCCCC(CCCNC(=O)NCCOCCOCCNS(=O)(=O)c3cccc([C@@H]4CN(C)Cc5c(Cl)cc(Cl)cc54)c3)(CCCNC(=O)NCCOCCOCCNS(=O)(=O)c3cccc([C@@H]4CN(C)Cc5c(Cl)cc(Cl)cc54)c3)NC(=O)CCC(=O)O)c2)C1 [compound 155] | 7.90 | 7.70 |  |  |  | 44 | 2 | 40 | 
